Experimental data taken from ChEMBL document CHEMBL1131546, “Synthesis and pharmacological evaluation of benzofuran-acetamides as "antineophobic" mitochondrial DBI receptor complex ligands” (Bioorg Med Chem Lett, 1998).

Legend:
[1] = Binding affinity was determined as the ability to displace [3H]4''CD from the (mDRC) mitochondrial DBI receptor complex using primary cultures of glial cells; parameters: species or system Rattus norvegicus
[2] = Concentration required to stimulate pregnenolone formation in the mitochondria of C6-2B glioma cells.; assay type: functional, Rattus norvegicus
[3] = tested on: Rattus norvegicus; experiment: Tested for antineophobic activity in rats using elevated maze test upon 57 umol/kg peroral administration, expressed as number of entries into the open arms after 45 min of administration; assay type: functional
[4] = tested on: Rattus norvegicus; experiment: Tested for antineophobic activity in rats using elevated maze test upon 57 umol/kg peroral administration, expressed as percent of time spent into open arms after 45 min of administration; assay type: functional
[5] = tested on: Rattus norvegicus; experiment: Tested for antineophobic activity in rats using elevated maze test upon 70 umol/kg peroral administration, expressed as number of entries into the open arms after 45 min of administration; assay type: functional
[6] = tested on: Rattus norvegicus; experiment: Tested for antineophobic activity in rats using elevated maze test upon 70 umol/kg peroral administration, expressed as percent of time spent into open arms after 45 min of administration; assay type: functional
[7] = tested on: Rattus norvegicus; experiment: Tested for antineophobic activity in rats using elevated maze test upon 53 umol/kg peroral administration, expressed as number of entries into the open arms after 45 min of administration; assay type: functional
[8] = tested on: Rattus norvegicus; experiment: Tested for antineophobic activity in rats using elevated maze test upon 53 umol/kg peroral administration, expressed as percent of time spent into open arms after 45 min of administration; assay type: functional
[9] = tested on: Rattus norvegicus; experiment: Tested for antineophobic activity in rats using elevated maze test upon 59 umol/kg peroral administration, expressed as number of entries into the open arms after 45 min of administration; assay type: functional
[10] = tested on: Rattus norvegicus; experiment: Tested for antineophobic activity in rats using elevated maze test upon 59 umol/kg po administration, expressed as percent of time spent into open arms after 45 min of administration; assay type: functional

## CCCCCCN(CCCCCC)C(=O)Cc1c(-c2ccc(I)cc2)oc2ccccc12
[1]
  Ki: 80 nM

## CCCCCCN(CCCCCC)C(=O)Cc1c(-c2ccc(F)cc2)[nH]c2ccccc12
[2]
  EC50: 3 nM
[1]
  Ki: 4.4 nM
[3]
  No. of openarm entries: 2.1
[4]
  Time: 4.5%

## CCCCCCN(CCCCCC)C(=O)Cc1c(-c2ccc(F)cc2)oc2ccccc12
[1]
  Ki: 8 nM
[3]
  No. of openarm entries: 2.1
[4]
  Time: 5.1%

## CCCCCCN(CCCCCC)C(=O)Cc1c(-c2ccccc2)oc2ccc(Cl)cc12
[1]
  Ki: 32 nM
[5]
  No. of openarm entries: 2.1
[6]
  Time: 4.7%

## CCCCCCN(CCCCCC)C(=O)Cc1c(-c2ccc(N)cc2)oc2ccccc12
[1]
  Ki: 35 nM

## CCCCCCN(CCCCCC)C(=O)Cc1c(-c2ccc(F)cc2)oc2ccc(Cl)cc12
[1]
  Ki: 32 nM
[7]
  No. of openarm entries: 2.3
[8]
  Time: 4.7%

## CCCCCCN(CCCCCC)C(=O)Cc1c(-c2ccccc2)oc2ccccc12
[1]
  Ki: 14 nM
[9]
  No. of openarm entries: 2.6
[10]
  Time: 4.5%
